We go through 19 compounds from ChEMBL document CHEMBL3779775, “Synthesis, anti-inflammatory, analgesic, COX-1/2 inhibition activities and molecular docking study of pyrazoline derivatives” (Bioorg Med Chem, 2016).

Data set [1] relates to Mus musculus. Kind of data set: Analgesic activity in albino Swiss mouse assessed as decrease in licking or blowing time at 200 mg/kg, ip administered as single dose measured after 1 hr by hot plate test. The format is functional, organism-based. In general terms: Hot-plate and tail-flick tests time the reaction to a heat stimulus.
The test system of data set [2] is Rattus norvegicus. Kind of data set: Antiinflammatory activity in carrageenan induced Sprague-Dawley rat paw oedema model assessed as reduction of paw volume at 200 mg/kg, ip measured after 2 hrs by plethysmometer method. The format is functional, organism-based. (The carrageenan paw model is a standard test of acute inflammation.)
For data set [3], the target named is T1, Prostaglandin G/H synthase 1 (Ovis aries, UniProt P05979).
T1 sequence (P05979 whole entry): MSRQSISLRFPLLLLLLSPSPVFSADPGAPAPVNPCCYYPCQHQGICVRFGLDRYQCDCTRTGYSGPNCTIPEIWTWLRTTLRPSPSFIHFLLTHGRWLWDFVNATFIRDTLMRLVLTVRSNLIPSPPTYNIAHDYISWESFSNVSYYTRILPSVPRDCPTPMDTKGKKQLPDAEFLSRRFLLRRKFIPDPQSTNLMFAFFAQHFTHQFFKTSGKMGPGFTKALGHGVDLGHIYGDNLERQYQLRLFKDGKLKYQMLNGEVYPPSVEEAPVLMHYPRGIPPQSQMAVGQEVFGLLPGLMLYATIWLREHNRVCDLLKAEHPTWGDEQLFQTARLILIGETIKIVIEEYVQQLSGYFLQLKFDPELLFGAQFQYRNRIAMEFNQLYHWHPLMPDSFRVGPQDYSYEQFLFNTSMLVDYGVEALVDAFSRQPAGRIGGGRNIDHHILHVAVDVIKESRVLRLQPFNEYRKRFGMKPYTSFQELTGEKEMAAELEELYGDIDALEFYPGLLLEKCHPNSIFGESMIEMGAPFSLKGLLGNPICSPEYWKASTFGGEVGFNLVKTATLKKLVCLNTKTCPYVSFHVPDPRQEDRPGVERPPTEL
Kind of data set: Inhibition of ovine COX-1 using arachidonic acid as substrate assessed as production of […] preincubated for 5 mins followed by addition of substrate measured after 2 mins by EIA.

Data set [4] concerns Rattus norvegicus. Kind of data set: Antiinflammatory activity in ip dosed carrageenan induced Sprague-Dawley rat paw oedema model assessed as reduction of paw volume measured after 2 hrs by plethysmometer method. The format is functional.
For data set [5], the system named is Mus musculus. Kind of data set: Analgesic activity in ip dosed albino Swiss mouse assessed as decrease in licking or blowing time administered as single dose measured after 1 hr by hot plate test. The format is functional.
Data set [6] relates to Rattus norvegicus. Kind of data set: Ulcerogenicity in ip dosed fasted Sprague-Dawley rat after 24 hrs by hand lens. The format is toxicity, organism-based. The note with it: in vivo.

Structures are written as SMILES. pIC50: −log10 of the molar value. Activity calls are given as the source filed them. No cut-off for these calls is given here. A value given as a limit tells only on which side of the number the result lay.

For `O=C(CCl)N1N=C(c2ccc(Br)cc2)CC1c1ccc([N+](=O)[O-])cc1` (stereo not drawn), the result in the data set with Mus musculus [1] and in the data set on Rattus norvegicus [2] was inactive.

`Nc1ccc(C2=NNC(c3ccc([N+](=O)[O-])cc3)C2)cc1` (stereo not drawn): the outcome in the data set with Mus musculus [1] and in the data set on Rattus norvegicus [2] was inactive.

Regarding `O=C(CO[N+](=O)[O-])N1N=C(c2ccc(F)cc2)CC1c1ccc([N+](=O)[O-])cc1` (stereo not drawn), in data set [3], the pIC50 is under 4.00. Further, the 50% effective dose (ED50) in the data set with Rattus norvegicus [4] is 65.3 mg/kg; in the data set on Mus musculus [5], 55.1 mg/kg. The compound further returned an Activity in the data set with Rattus norvegicus [6] of over 200 mg/kg.

For the compound `CC(=O)Nc1ccc(C2=NN(c3ccccc3)C(c3ccc([N+](=O)[O-])cc3)C2)cc1` (stereo not drawn), the ED50 amounted to 91.3 mg/kg with Rattus norvegicus [4] and 75.2 mg/kg in the data set with Mus musculus [5]. This compound also registered an Activity in the data set with Rattus norvegicus [6] of over 200 mg/kg.

In the case of `O=C(CO[N+](=O)[O-])N1N=C(c2ccc(Br)cc2)CC1c1ccc(Cl)cc1` (stereo not drawn), the result in the data set on Mus musculus [1] and in the data set on Rattus norvegicus [2] was inactive.

As to `Cc1ccc(-c2cc(C(F)(F)F)nn2-c2ccc(S(N)(=O)=O)cc2)cc1` [CELECOXIB], the median effective dose (ED50) came out at 89 mg/kg in the data set on Rattus norvegicus [4] and 72 mg/kg with Mus musculus [5]. This compound showed an Activity with Rattus norvegicus [6] of over 200 mg/kg.

With `O=C(CO[N+](=O)[O-])N1N=C(c2ccc(Br)cc2)CC1c1ccc([N+](=O)[O-])cc1` (stereo not drawn), the outcome in the data set on Mus musculus [1] and in the data set on Rattus norvegicus [2] was inactive.

On to `CC(=O)c1ccc(NCC(=O)N2N=C(c3ccccc3)CC2c2ccc([N+](=O)[O-])cc2)cc1` (stereo not drawn), for which the negative-log IC50 (pIC50) in data set [3] was under 4.00. The 50% effective dose (ED50) in the data set on Rattus norvegicus [4] was determined as 59.4 mg/kg; in the data set on Mus musculus [5], 38.6 mg/kg. This compound also yielded an Activity in the data set with Rattus norvegicus [6] of over 200 mg/kg.

Take `O=C(CCl)N1N=C(c2ccc(F)cc2)CC1c1ccc([N+](=O)[O-])cc1` (stereo not drawn): the ED50 with Rattus norvegicus [4] is 98.4 mg/kg; with Mus musculus [5], 68.2 mg/kg. This compound also showed an Activity in the data set on Rattus norvegicus [6] of over 200 mg/kg.

With `O=[N+]([O-])c1ccc(C2CC(c3ccc(F)cc3)=NN2)cc1` (stereo not drawn), the values for the ED50 in the data set with Rattus norvegicus [4] and with Mus musculus [5] were 89.7 mg/kg and 59.1 mg/kg, respectively. In the data set on Rattus norvegicus [6], this compound showed an Activity of over 200 mg/kg.

As for `Nc1ccc(C2=NN(C(=O)CCl)C(c3ccc([N+](=O)[O-])cc3)C2)cc1` (stereo not drawn), the outcome in the data set with Mus musculus [1] and in the data set with Rattus norvegicus [2] was inactive.

`CC(=O)Nc1ccc(C2=NN(c3ccccc3)C(c3ccc(Cl)cc3)C2)cc1` (stereo not drawn): in data set [3], the pIC50 is under 4.00. In addition, the ED50 in the data set with Rattus norvegicus [4] is 74.2 mg/kg; in the data set with Mus musculus [5], 49.6 mg/kg. Further, in the data set on Rattus norvegicus [6], the Activity was over 200 mg/kg.

For the compound `CC(=O)c1ccc(NCC(=O)N2N=C(c3ccc(F)cc3)CC2c2ccc([N+](=O)[O-])cc2)cc1` (stereo not drawn), the pIC50 in data set [3] is under 4.00. Also, the 50% effective dose (ED50) in the data set on Rattus norvegicus [4] was determined as 73.2 mg/kg; in the data set on Mus musculus [5], 49.4 mg/kg. In addition, the Activity in the data set with Rattus norvegicus [6] is over 200 mg/kg.

In the case of `O=C(CCl)N1N=C(c2ccccc2)CC1c1ccc([N+](=O)[O-])cc1` (stereo not drawn), the result with Mus musculus [1] and with Rattus norvegicus [2] was inactive.

For the compound `O=C(CO[N+](=O)[O-])N1N=C(c2ccccc2)CC1c1ccc([N+](=O)[O-])cc1` (stereo not drawn), the outcome in the data set on Mus musculus [1] and in the data set on Rattus norvegicus [2] was inactive.

Consider `CC(=O)c1ccc(NCC(=O)N2N=C(c3ccc(Br)cc3)CC2c2ccc([N+](=O)[O-])cc2)cc1` (stereo not drawn), for which the values for the 50% effective dose (ED50) with Rattus norvegicus [4] and in the data set on Mus musculus [5] were 95.9 mg/kg and 87.8 mg/kg, respectively. Also, the Activity with Rattus norvegicus [6] is over 200 mg/kg.

As for `O=C(CCl)Nc1ccc(C2=NN(C(=O)CCl)C(c3ccc([N+](=O)[O-])cc3)C2)cc1` (stereo not drawn), the median effective dose (ED50) stood at 90.3 mg/kg with Rattus norvegicus [4] and 81.9 mg/kg with Mus musculus [5]. In the data set with Rattus norvegicus [6], this compound showed an Activity of over 200 mg/kg.

As for `Fc1ccc(C2=NNC(c3ccc(Cl)cc3)C2)cc1` (stereo not drawn), the result with Mus musculus [1] and in the data set with Rattus norvegicus [2] was inactive.

As for `CC(=O)Nc1ccc(C2=NN(C(C)=O)C(c3ccc([N+](=O)[O-])cc3)C2)cc1` (stereo not drawn), the negative-log IC50 (pIC50) in data set [3] was under 4.00. Further, in the data set with Mus musculus [5], the ED50 came out at 48.1 mg/kg. Besides, in the data set on Rattus norvegicus [6], the Activity was over 200 mg/kg.

What is called pIC50 is −log10 of the IC50, conventionally taken in molar units. As a reminder, the ED50 is the midpoint of the dose-response relation.
